Patent US20260015350A1, “AZAQUINAZOLINE PAN-KRAS INHIBITORS” (Mirati Therapeutics, Inc., priority 2022, published 2026)

What was measured:
KRas^G12D = biological target: T1, KRas^G12D (Homo sapiens, UniProt P01116, G12D); assay: KRas binding assay (TR-FRET tracer displacement), KRas G12D
T1 construct: Biotinylated KRas (corresponding to amino acids 1-169, produced at Accelegan Inc.); biotin (biotinylated); purchased Accelegan Inc

[1] = test system: KRas-mediated phosphorylation of ERK in MKN1 cells; assay: Inhibition of KRas-mediated phosphorylation of ERK (Cisbio HTRF pERK), MKN1 cells; assay type: cell-based; conditions: Homo sapiens, MKN-1
Experimental: (§1) Inhibition of KRas Phosphorylation of ERK (HTRF) by Exemplary Compounds of Formula (I)
(§2) Cisbio HTRF Advanced PERK Assay Catalog #64AERPEH
(§3) Day 1: Seed 6,000 cells/well-25 μl/well in 384-well white solid bottom plate; RPM1_10% FBS. Incubate overnight at 37° C./5% CO2.
(§4) Incubate for 4 hours at room temperature covered.
(§5) Read HTRF using ClarioStar

KRas^G12V = biological target: T2, KRas^G12V (Homo sapiens, UniProt P01116, G12V); assay: KRas binding assay (TR-FRET tracer displacement), KRas G12V
T2 construct: Biotinylated KRas (corresponding to amino acids 1-169, produced at Accelegan Inc.); biotin (biotinylated); purchased Accelegan Inc
T2 sequence (P01116 1-169 isoform P01116-2 G12V): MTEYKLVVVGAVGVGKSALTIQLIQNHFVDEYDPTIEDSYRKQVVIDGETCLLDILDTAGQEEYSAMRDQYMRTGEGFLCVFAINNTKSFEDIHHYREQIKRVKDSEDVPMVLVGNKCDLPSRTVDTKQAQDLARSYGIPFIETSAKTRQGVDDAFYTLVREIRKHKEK

[2] = test system: KRas-mediated phosphorylation of ERK in PSN1 cells; assay: Inhibition of KRas-mediated phosphorylation of ERK (Cisbio HTRF pERK), PSN1 cells; assay type: cell-based; conditions: Homo sapiens
Experimental: as §1, §2, §3, §4, §5

[3] = test system: KRas-mediated phosphorylation of ERK in H727 cells; assay: Inhibition of KRas-mediated phosphorylation of ERK (Cisbio HTRF pERK), H727 cells; assay type: cell-based; conditions: for IC50: HTRF pERK
How it was run: (§6)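 Cells were seeded at 6,000 per well and treated for 3 hrs with compound in a 10-dose, 3-fold series from 10 uM (0.8% final DMSO), with 0.2 uM Trametinib as Min control. Lysates made at 4° C over 40 mins were incubated 2 hrs at room temperature with d2- and Cryptate-labelled antibodies, then read by HTRF.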

[4] = test system: KRas-mediated phosphorylation of ERK in AsPC-1 cells; assay: Inhibition of KRas-mediated phosphorylation of ERK (Cisbio HTRF pERK), AsPC-1 cells; assay type: cell-based; conditions: for IC50: HTRF pERK
How it was run: as §6

KRas^G12R = biological target: T3, KRas^G12R (Homo sapiens, UniProt P01116, G12R); assay: KRas binding assay (TR-FRET tracer displacement), KRas G12R
T3 construct: Biotinylated KRas (corresponding to amino acids 1-169, produced at Accelegan Inc.); biotin (biotinylated); purchased Accelegan Inc
T3 sequence (P01116 1-169 isoform P01116-2 G12R): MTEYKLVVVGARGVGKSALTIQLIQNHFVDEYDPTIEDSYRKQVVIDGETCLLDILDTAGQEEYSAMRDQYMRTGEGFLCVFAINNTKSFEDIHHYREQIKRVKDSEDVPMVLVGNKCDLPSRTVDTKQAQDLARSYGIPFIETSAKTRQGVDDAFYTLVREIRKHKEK

[5] = test system: KRas-mediated phosphorylation of ERK in H460 cells; assay: Inhibition of KRas-mediated phosphorylation of ERK (Cisbio HTRF pERK), H460 cells; assay type: cell-based; conditions: single point, 100 nM compound, 3 hrs
How it was run: as §6

[6] = test system: KRas-mediated phosphorylation of ERK in H358 cells; assay: Inhibition of KRas-mediated phosphorylation of ERK (Cisbio HTRF pERK), H358 cells; assay type: cell-based; conditions: single point, 100 nM compound, 3 hrs
How it was run: as §6

[7] = test system: KRas-mediated phosphorylation of ERK in A549 cells; assay: Inhibition of KRas-mediated phosphorylation of ERK (Cisbio HTRF pERK), A549 cells; assay type: cell-based; conditions: single point, 100 nM compound, 3 hrs
How it was run: (§7)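 Using 6,000 cells per well, compounds are applied for 3 hrs and cells then lysed at 4° C with shaking for 40 mins. Phospho-ERK is measured by HTRF after 2 hrs of lysate incubation with the d2/Cryptate antibody mixture.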

[8] = test system: KRas-mediated phosphorylation of ERK in HCT116 cells; assay: Inhibition of KRas-mediated phosphorylation of ERK (Cisbio HTRF pERK), HCT116 cells; assay type: cell-based; conditions: single point, 100 nM compound, 3 hrs
How it was run: as §7

[9] = Homo sapiens, NCI-H727, H727 cells
[10] = Homo sapiens, ASPC1, AsPC-1 cells

T1 sequence (P01116 1-169 isoform P01116-2 G12D): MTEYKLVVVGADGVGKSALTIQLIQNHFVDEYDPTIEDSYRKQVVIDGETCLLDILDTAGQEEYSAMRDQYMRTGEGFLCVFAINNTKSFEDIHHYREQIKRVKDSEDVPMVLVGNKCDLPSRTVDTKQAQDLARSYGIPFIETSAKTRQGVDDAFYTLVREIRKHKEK

Row | SMILES | IC50 (KRas^G12D) | IC50 [1] | IC50 (KRas^G12V) | IC50 [2] | IC50 [3, 9] | IC50 [4, 10] | IC50 (KRas^G12R) | inhibition at 0.1 µM ([5]; Homo sapiens, NCI-H460, 3 h) | inhibition at 0.1 µM ([6]; Homo sapiens, NCI-H358, 3 h) | inhibition at 0.1 µM ([7]; Homo sapiens, A549, 3 h) | inhibition at 0.1 µM ([8]; Homo sapiens, HCT-116, 3 h) | Inhibition (HTRF % at 100 nM) of KRas-mediated Phosphorylation of ERK, H460 ([5]; 0.1 µM) | IC50 ([3]; H727 cells) | Inhibition (HTRF % at 100 nM) of KRas-mediated Phosphorylation of ERK, H727 ([3]; single point, 100 nM compound, 3 hrs, H727 cells, 0.1 µM) | IC50 ([4]; AsPC-1 cells) | Inhibition (HTRF % at 100 nM) of KRas-mediated Phosphorylation of ERK, AsPC-1 ([4]; single point, 100 nM compound, 3 hrs, AsPC-1 cells, 0.1 µM) | Inhibition (HTRF % at 100 nM) of KRas-mediated Phosphorylation of ERK, H358 ([6]; 0.1 µM) | Inhibition (HTRF % at 100 nM) of KRas-mediated Phosphorylation of ERK, A549 ([7]; 0.1 µM) | Inhibition (HTRF % at 100 nM) of KRas-mediated Phosphorylation of ERK, HCT116 ([8]; 0.1 µM)
1 | CCc1c(F)ccc2cc(O)cc(-c3ncc4c(N5CCCS(=O)(=O)CC5)nc(OC[C@@]56CCCN5C[C@H](F)C6)nc4c3F)c12 [Example 583, 4-(7-(8-ethyl-7-fluoro-3-hydroxynaphthalen-1-yl)-8-fluoro-2-(((2R,7aS)-2-fluorohexahydro-1H-pyrrolizin-7a-yl)methoxy)pyrido[4,3-d]pyrimidin-4-yl)-1,4-thiazepane 1,1-dioxide] | 33 nM | 312 nM | 14 nM | > 10000 nM | 2500 nM | 5380 nM | 3 nM | – | – | – | – | – | – | – | – | – | – | – | –
2 | CCc1c(F)ccc2cc(O)cc(-c3ncc4c(NCc5cnn(C(=O)N(C)C)c5N)nc(OC[C@@]56CCCN5C[C@H](F)C6)nc4c3F)c12 [Example 640, 5-amino-4-(((7-(8-ethyl-7-fluoro-3-hydroxynaphthalen-1-yl)-8-fluoro-2-(((2R,7aS)-2-fluorohexahydro-1H-pyrrolizin-7a-yl)methoxy)pyrido[4,3-d]pyrimidin-4-yl)amino)methyl)-N,N-dimethyl-1H-pyrazole-1-carboxamide] | 83 nM | 208 nM | 16 nM | > 10000 nM | 889 nM | 5130 nM | 17 nM | – | – | – | – | – | – | – | – | – | – | – | –
3 | CCc1c(F)ccc2cc(O)cc(-c3ncc4c(N5C[C@@H]6OCCN[C@@H]6C5)nc(OC[C@@]56CCCN5C[C@H](F)C6)nc4c3F)c12 [Example 555, 5-ethyl-6-fluoro-4-(8-fluoro-2-(((2R,7aS)-2-fluorotetrahydro-1H-pyrrolizin-7a(5H)-yl)methoxy)-4-(hexahydropyrrolo[3,4-b][1,4]oxazin-6 (2H)-yl)pyrido[4,3-d]pyrimidin-7-yl)naphthalen-2-ol] | 2030 nM | 4020 nM | 512 nM | > 10000 nM | > 10000 nM | > 10000 nM | 2030 nM | – | – | – | – | – | – | – | – | – | – | – | –
4 | CCc1c(F)ccc2cc(O)cc(-c3ncc4c(NCC5CC(CO)NC5=O)nc(OC[C@@]56CCCN5C[C@H](F)C6)nc4c3F)c12 (stereo partly drawn) [Example 575, 3-(((7-(8-ethyl-7-fluoro-3-hydroxynaphthalen-1-yl)-8-fluoro-2-(((2R,7aS)-2-fluorotetrahydro-1H-pyrrolizin-7a(5H)-yl)methoxy)pyrido[4,3-d]pyrimidin-4-yl)amino)methyl)-5-(hydroxymethyl)pyrrolidin-2-one] | 25 nM | 417 nM | 7 nM | > 10000 nM | > 10000 nM | > 10000 nM | 27 nM | – | – | – | – | – | – | – | – | – | – | – | –
5 | CCc1c(F)ccc2cc(O)cc(-c3ncc4c(N5CCC[C@H](c6ccnn6C)CC5)nc(OC[C@@]56CCCN5C[C@H](F)C6)nc4c3F)c12 [Example 634, 5-ethyl-6-fluoro-4-(8-fluoro-2-(((2R,7aS)-2-fluorotetrahydro-1H-pyrrolizin-7a(5H)-yl)methoxy)-4-((S)-4-(1-methyl-1H-pyrazol-5-yl)azepan-1-yl)pyrido[4,3-d]pyrimidin-7-yl)naphthalen-2-ol] | 2240 nM | 2980 nM | 262 nM | > 10000 nM | 6210 nM | > 10000 nM | 839 nM | – | – | – | – | – | – | – | – | – | – | – | –
6 | CCc1c(F)ccc2cc(O)cc(-c3ncc4c(N5CC6CCCC(C6)C5)nc(OC[C@@]56CCCN5C[C@H](F)C6)nc4c3F)c12 [Example 551, 4-(4-(3-azabicyclo[3.3.1]nonan-3-yl)-8-fluoro-2-(((2R,7aS)-2-fluorotetrahydro-1H-pyrrolizin-7a(5H)-yl)methoxy)pyrido[4,3-d]pyrimidin-7-yl)-5-ethyl-6-fluoronaphthalen-2-ol] | 127 nM | 1460 nM | 32 nM | > 10000 nM | 814 nM | 2500 nM | 27 nM | – | – | – | – | – | – | – | – | – | – | – | –
7 | CN(C)C(=O)c1cc2n(n1)CCCN(c1nc(OCC34CCCN3CCC4)nc3c(F)c(-c4cc(O)cc(Cl)c4C4CC4)ncc13)C2 [Example 744, 5-(7-(3-chloro-2-cyclopropyl-5-hydroxyphenyl)-8-fluoro-2-((hexahydro-1H-pyrrolizin-7a-yl)methoxy)pyrido[4,3-d]pyrimidin-4-yl)-N,N-dimethyl-5,6,7,8-tetrahydro-4H-pyrazolo[1,5-a][1,4]diazepine-2-carboxamide] | < 2 nM | > 10000 nM | < 2 nM | > 10000 nM | 5730 nM | 2730 nM | 2 nM | – | – | – | – | – | – | – | – | – | – | – | –
8 | CCc1c(F)ccc2cc(O)cc(-c3ncc4c(N5CCCn6cnnc6C5)nc(OC[C@@]56CCCN5C[C@H](F)C6)nc4c3F)c12 [Example 563, 4-(4-(6,7-dihydro-5H-[1,2,4]triazolo[4,3-a][1,4]diazepin-8 (9H)-yl)-8-fluoro-2-(((2R,7aS)-2-fluorotetrahydro-1H-pyrrolizin-7a(5H)-yl)methoxy)pyrido[4,3-d]pyrimidin-7-yl)-5-ethyl-6-fluoronaphthalen-2-ol] | 85 nM | > 10000 nM | 100 nM | > 10000 nM | > 10000 nM | > 10000 nM | 238 nM | – | – | – | – | – | – | – | – | – | – | – | –
9 | CCc1c(F)ccc2cc(O)cc(-c3ncc4c(N5CCCC6(CCNS(=O)(=O)N6)C5)nc(OC[C@@]56CCCN5C[C@H](F)C6)nc4c3F)c12 (stereo partly drawn) [Example 656, 8-(7-(8-ethyl-7-fluoro-3-hydroxynaphthalen-1-yl)-8-fluoro-2-(((2R,7aS)-2-fluorotetrahydro-1H-pyrrolizin-7a(5H)-yl)methoxy)pyrido[4,3-d]pyrimidin-4-yl)-2-thia-1,3,8-triazaspiro[5.5]undecane 2,2-dioxide] | 5 nM | 943 nM | 6 nM | 3240 nM | 2380 nM | 1900 nM | 10 nM | – | – | – | – | – | – | – | – | – | – | – | –
10 | CCc1c(F)ccc2cc(O)cc(-c3ncc4c(N5CCCCC(n6ccnn6)C5)nc(OC[C@@]56CCCN5C[C@H](F)C6)nc4c3F)c12 (stereo partly drawn) [Example 830, 4-(4-(3-(1H-1,2,3-triazol-1-yl)azepan-1-yl)-8-fluoro-2-(((2R,7aS)-2-fluorotetrahydro-1H-pyrrolizin-7a(5H)-yl)methoxy)pyrido[4,3-d]pyrimidin-7-yl)-5-ethyl-6-fluoronaphthalen-2-ol] | 5 nM | 188 nM | 5 nM | 7860 nM | 267 nM | 272 nM | 12 nM | – | – | – | – | – | – | – | – | – | – | – | –
11 | CCc1c(F)ccc2cc(O)cc(-c3ncc4c(N5CCCc6ncncc6C5)nc(OC[C@@]56CCCN5C[C@H](F)C6)nc4c3F)c12 [Example 582, 4-(4-(8,9-dihydro-5H-pyrimido[5,4-c]azepin-6(7H)-yl)-8-fluoro-2-(((2R,7aS)-2-fluorohexahydro-1H-pyrrolizin-7a-yl)methoxy)pyrido[4,3-d]pyrimidin-7-yl)-5-ethyl-6-fluoronaphthalen-2-ol] | 3 nM | – | 11 nM | – | 328 nM | 130 nM | 10 nM | 3% | 15% | 32% | 13% | – | – | – | – | – | – | – | –
12 | CCc1c(F)ccc2cc(O)cc(-c3ncc4c(N5CC6CCC(C5)C6C#N)nc(OC[C@@]56CCCN5C[C@H](F)C6)nc4c3F)c12 (single isomer, unassigned) [Example 560] | 262 nM | – | 85 nM | – | – | – | 182 nM | – | – | – | – | 10% | 724 nM | 8% | 3100 nM | 5% | 4% | 15% | 12%
